Where two headings read alike, the source gives them in different places.
Assays:
Assay type in all cases: in vivo
Veronica persica [1] = test: Pre-emergence herbicidal action against harmful plants; details: Comparative table 7, pre-emergence, 20 g a.i./ha, visual scoring 3-4 weeks after treatment
Source text: (§1) Seeds or rhizome pieces of mono- and dicotyledonous harmful plants are placed in sandy loam in pots of a diameter of 9 to 13 cm and covered with soil. The herbicides, formulated as emulsifiable concentrates or dusts, are applied to the surface of the covering soil in the form of aqueous dispersions or suspensions or emulsions at an application rate of 300 to 800 l of water/ha (converted), at various dosages. For further cultivation of the plants, the pots are then kept in a greenhouse under optimum conditions. The visual scoring of the damage to the harmful plants is carried out 3-4 weeks after the treatment. As shown by the results of these comparative tables, the selected compounds according to the invention have better herbicidal activity against a broad spectrum of economically important mono- and dicotyledonous harmful plants than the compounds disclosed in the prior art.

Amaranthus retroflexus [2] = test: as above; details: visual scoring 3-4 weeks after treatment
Source text: as §1

Viola tricolor [3] = test: as above; details: Comparative table 7, pre-emergence, 20 g a.i./ha, visual scoring 3-4 weeks after treatment
Source text: as §1

Setaria viridis [4] = test: as above; details: Comparative table 7, pre-emergence, 20 g a.i./ha, visual scoring 3-4 weeks after treatment
Source text: as §1

Abutilon theophrasti = test: Post-emergence herbicidal action against harmful plants; details: 20 g a.i./ha, scored after 3 to 4 weeks
Procedure: (§2) Seeds of mono- and dicotyledonous harmful plants are placed in sandy loam in cardboard pots, covered with soil and grown in the greenhouse under good growth conditions. Two to three weeks after sowing, the test plants are treated at the three-leaf stage. The compounds according to the invention, which are formulated as wettable powders or as emulsion concentrates, are sprayed at an application rate of 600 to 800 l of water/ha (converted) in a dosage stated in tables 1 to 5 onto the surface of the green plant parts. After the test plants have been left to stand in the greenhouse for 3 to 4 weeks under optimum growth conditions, the action of the compounds according to the invention is scored in comparison to compounds disclosed in the prior art. As shown by the results of these comparison tables, the selected compounds according to the invention have better herbicidal activity against a broad spectrum of economically important mono- and dicotyledonous harmful plants than the compounds disclosed in the prior art.

Veronica persica [5] = test: as above; details: 20 g a.i./ha, scored after 3 to 4 weeks
Procedure: as §2

Setaria viridis [6] = test: as above; details: 504 h, scored after 3 to 4 weeks, read-out: Activity against harmful plants SETVI; for pest or weed control at 20 g/ha: 20 g a.i./ha; for pest or weed control at 80 g/ha: Comparative table 3, post-emergence, 80 g a.i./ha
Procedure: as §2

Xanthium strumarium [7] = test: as above; details: Comparative table 2, post-emergence, 80 g a.i./ha, scored after 3 to 4 weeks
Procedure: as §2

Amaranthus retroflexus [8] = test: as above; details: 80 g a.i./ha, scored after 3 to 4 weeks
Procedure: as §2

Galium aparine [9] = test: as above; details: Comparative table 2, post-emergence, 80 g a.i./ha, scored after 3 to 4 weeks
Procedure: as §2

Viola tricolor [10] = test: as above; details: Comparative table 1, post-emergence, 20 g a.i./ha, scored after 3 to 4 weeks
Procedure: as §2

Xanthium strumarium [11] = test: Pre-emergence herbicidal action against harmful plants; details: Comparative table 9, pre-emergence, 320 g a.i./ha, visual scoring 3-4 weeks after treatment
Source text: as §1

Galium aparine [12] = test: as above; details: Comparative table 9, pre-emergence, 320 g a.i./ha, visual scoring 3-4 weeks after treatment
Source text: as §1

Cyperus serotinus [13] = test: Post-emergence herbicidal action against harmful plants; details: Comparative table 3, post-emergence, 80 g a.i./ha, scored after 3 to 4 weeks
Procedure: as §2

Lolium multiflorum = test: Pre-emergence herbicidal action against harmful plants; details: Comparative table 5, pre-emergence, 320 g a.i./ha, visual scoring 3-4 weeks after treatment
Source text: as §1

Stellaria media = test: as above; details: Comparative table 5, pre-emergence, 320 g a.i./ha, visual scoring 3-4 weeks after treatment
Source text: as §1

Cyperus serotinus [14] = test: as above; details: Comparative table 5, pre-emergence, 320 g a.i./ha, visual scoring 3-4 weeks after treatment
Source text: as §1

ALOMY = test: as above; details: Comparative table 6, pre-emergence, 320 g a.i./ha, visual scoring 3-4 weeks after treatment
Source text: as §1

Matricaria inodora = test: as above; details: Comparative table 6, pre-emergence, 320 g a.i./ha, visual scoring 3-4 weeks after treatment
Source text: as §1

[15] = Comparative table 7, pre-emergence, 20 g a.i./ha
[16] = Comparative table 4, post-emergence
[17] = Comparative table 2, post-emergence
[18] = Comparative table 8, post-emergence
[19] = Comparative table 1, post-emergence
[20] = Comparative table 3, post-emergence
[21] = Comparative table 6, pre-emergence, 320 g a.i./ha

`Cc1nn(C)c(O)c1C(=O)c1ccc(S(C)(=O)=O)c(N(C)CC2CC2)c1C` was tested, and the “Activity against harmful plants VERPE” value (Veronica persica [1]) was 90%, the “Activity against harmful plants AMARE” value (Amaranthus retroflexus [2]; [15]) was 100% and the “Activity against harmful plants VIOTR” value (Viola tricolor [3]) was 100%. For the same compound, the “Activity against harmful plants SETVI” value (Setaria viridis [4]) was 90%.

For `Cc1nn(C)c(O)c1C(=O)c1ccc(S(C)(=O)=O)c(N(C)CC2CC2)c1Cl`, the “Activity against harmful plants VERPE” value (Veronica persica [1]) was 0%, the “Activity against harmful plants AMARE” value (Amaranthus retroflexus [2]; [15]) was 20% and the “Activity against harmful plants VIOTR” value (Viola tricolor [3]) was 0%. For the same compound, the “Activity against harmful plants SETVI” value (Setaria viridis [4]) was 0%.

In the case of `Cc1nn(C)c(O)c1C(=O)c1ccc(S(C)(=O)=O)c(NC(C)C)c1C`, the “Activity against harmful plants ABUTH” value (Abutilon theophrasti; [16]) is reported as 90%, the “Activity against harmful plants VERPE” value (Veronica persica [5]; [16]) is reported as 70% and the pest or weed control at 20 g/ha (Setaria viridis [6]; [16]) is reported as 90%.

In the case of `CNc1c(S(C)(=O)=O)ccc(C(=O)c2c(C)nn(C)c2O)c1C`, the “Activity against harmful plants XANST” value (Xanthium strumarium [7]) is reported as 70%, the “Activity against harmful plants AMARE” value (Amaranthus retroflexus [8]; [17]) is reported as 90% and the “Activity against harmful plants GALAP” value (Galium aparine [9]) is reported as 80%.

`COCCCNc1c(S(C)(=O)=O)ccc(C(=O)c2c(C)nn(C)c2O)c1Cl` was tested, and the “Activity against harmful plants ABUTH” value (Abutilon theophrasti; [18]) was 70% and the pest or weed control at 20 g/ha (Setaria viridis [6]; [18]) was 70%.

With `COCCCNc1c(S(C)(=O)=O)ccc(C(=O)c2c(C)nn(C)c2O)c1C` the “Activity against harmful plants ABUTH” value (Abutilon theophrasti; [18]) was 90% and the pest or weed control at 20 g/ha (Setaria viridis [6]; [18]) was 100%.

`Cc1nn(C)c(O)c1C(=O)c1ccc(S(C)(=O)=O)c(N)c1C` was tested, and the “Activity against harmful plants VERPE” value (Veronica persica [5]; [19]) was 90%, the “Activity against harmful plants VIOTR” value (Viola tricolor [10]) was 80% and the pest or weed control at 20 g/ha (Setaria viridis [6]; [19]) was 80%.

For `Cc1nn(C)c(O)c1C(=O)c1ccc(S(C)(=O)=O)c(NC(C)C)c1Cl`, the “Activity against harmful plants ABUTH” value (Abutilon theophrasti; [16]) was 80%, the “Activity against harmful plants VERPE” value (Veronica persica [5]; [16]) was 40% and the pest or weed control at 20 g/ha (Setaria viridis [6]; [16]) was 80%.

In the case of `CCn1ncc(C(=O)c2ccc(S(C)(=O)=O)c(N(C)C)c2C)c1O`, the “Activity against harmful plants XANST” value (Xanthium strumarium [11]) is reported as 10% and the “Activity against harmful plants GALAP” value (Galium aparine [12]) is reported as 80%.

With `CCCNc1c(S(C)(=O)=O)ccc(C(=O)c2c(C)nn(C)c2O)c1C` the “Activity against harmful plants CYPES” value (Cyperus serotinus [13]) was 80%, the “Activity against harmful plants AMARE” value (Amaranthus retroflexus [8]; [20]) was 100% and the pest or weed control at 80 g/ha (Setaria viridis [6]) was 90%.

In the case of `Cc1nn(C)c(O)c1C(=O)c1ccc(S(C)(=O)=O)c(N)c1Cl`, the “Activity against harmful plants VERPE” value (Veronica persica [5]; [19]) is reported as 70%, the “Activity against harmful plants VIOTR” value (Viola tricolor [10]) is reported as 70% and the pest or weed control at 20 g/ha (Setaria viridis [6]; [19]) is reported as 40%.

In the case of `CCOCCNc1c(S(C)(=O)=O)ccc(C(=O)c2c(C)nn(C)c2O)c1C`, the “Activity against harmful plants LOLMU” value (Lolium multiflorum) is reported as 50%, the “Activity against harmful plants STEME” value (Stellaria media) is reported as 90% and the “Activity against harmful plants CYPES” value (Cyperus serotinus [14]) is reported as 80%.

In the case of `Cc1nn(C)c(O)c1C(=O)c1ccc(S(C)(=O)=O)c(NCC2CC2)c1Cl`, the “Activity against harmful plants ALOMY” value (ALOMY) is reported as 20%, the “Activity against harmful plants MATIN” value (Matricaria inodora) is reported as 0% and the “Activity against harmful plants AMARE” value (Amaranthus retroflexus [2]; [21]) is reported as 90%.

`CCOCCNc1c(S(C)(=O)=O)ccc(C(=O)c2c(C)nn(C)c2O)c1Cl` was tested, and the “Activity against harmful plants LOLMU” value (Lolium multiflorum) was 0%, the “Activity against harmful plants STEME” value (Stellaria media) was 0% and the “Activity against harmful plants CYPES” value (Cyperus serotinus [14]) was 60%.

In the case of `CNc1c(S(C)(=O)=O)ccc(C(=O)c2c(C)nn(C)c2O)c1Cl`, the “Activity against harmful plants XANST” value (Xanthium strumarium [7]) is reported as 50%, the “Activity against harmful plants AMARE” value (Amaranthus retroflexus [8]; [17]) is reported as 70% and the “Activity against harmful plants GALAP” value (Galium aparine [9]) is reported as 60%.

`Cc1nn(C)c(O)c1C(=O)c1ccc(S(C)(=O)=O)c(NCC2CC2)c1C` was tested, and the “Activity against harmful plants ALOMY” value (ALOMY) was 60%, the “Activity against harmful plants MATIN” value (Matricaria inodora) was 80% and the “Activity against harmful plants AMARE” value (Amaranthus retroflexus [2]; [21]) was 100%.

With `Cc1nn(C)c(O)c1C(=O)c1ccc(S(C)(=O)=O)c(N(C)C)c1C` the “Activity against harmful plants XANST” value (Xanthium strumarium [11]) was 100% and the “Activity against harmful plants GALAP” value (Galium aparine [12]) was 90%.

With `CCCNc1c(S(C)(=O)=O)ccc(C(=O)c2c(C)nn(C)c2O)c1Cl` the “Activity against harmful plants CYPES” value (Cyperus serotinus [13]) was 50%, the “Activity against harmful plants AMARE” value (Amaranthus retroflexus [8]; [20]) was 70% and the pest or weed control at 80 g/ha (Setaria viridis [6]) was 70%.
